# ChEMBL document CHEMBL4049381 (Medchemcomm, 2016)
# Experiments:
# [1] = target: T1, Solute carrier organic anion transporter family member 2B1 (Homo sapiens, UniProt O94956, H618Q); assay: Drug uptake assessed as human OATP2B1 H618Q mutant expressed in Xenopus laevis oocyte mediated drug accumulation at 0.005 to 50 uM after 15 mins by LC-MS/MS analysis relative to wild type protein; type: ADME; conditions: 0.25 h
# [2] = target: Solute carrier organic anion transporter family member 2B1 (Homo sapiens, UniProt O94956, H219Q); assay: Drug uptake assessed as human OATP2B1 H219Q mutant expressed in Xenopus laevis oocyte mediated drug accumulation at 0.005 to 50 uM after 15 mins by LC-MS/MS analysis relative to wild type protein; type: ADME; conditions: 0.25 h
# [3] = Substrate activity at human OATP2B1 H618Q/H579Q double mutant low affinity site expressed in Xenopus laevis oocytes assessed as Vmax for transporter-mediated drug accumulation per 15 mins per oocyte by Eadie-Hofstee plot method; type: ADME, cell-based; conditions: 0.25 h
# [4] = test system: OATP2B1 H579Q/H618Q double mutant, high affinity site; assay: Substrate activity at human OATP2B1 H579Q/H618Q double mutant high affinity site expressed in Xenopus laevis oocytes assessed as Km for transporter-mediated drug accumulation after 15 mins by Eadie-Hofstee plot method; type: ADME, cell-based
# [5] = target: T2, Solute carrier organic anion transporter family member 2B1 (Homo sapiens, UniProt O94956); assay: Drug uptake assessed as OATP2B1 low affinity site (unknown origin)-mediated drug uptake in presence of 1 mM pravastatin relative to control; type: ADME
# T2 sequence (O94956 whole entry): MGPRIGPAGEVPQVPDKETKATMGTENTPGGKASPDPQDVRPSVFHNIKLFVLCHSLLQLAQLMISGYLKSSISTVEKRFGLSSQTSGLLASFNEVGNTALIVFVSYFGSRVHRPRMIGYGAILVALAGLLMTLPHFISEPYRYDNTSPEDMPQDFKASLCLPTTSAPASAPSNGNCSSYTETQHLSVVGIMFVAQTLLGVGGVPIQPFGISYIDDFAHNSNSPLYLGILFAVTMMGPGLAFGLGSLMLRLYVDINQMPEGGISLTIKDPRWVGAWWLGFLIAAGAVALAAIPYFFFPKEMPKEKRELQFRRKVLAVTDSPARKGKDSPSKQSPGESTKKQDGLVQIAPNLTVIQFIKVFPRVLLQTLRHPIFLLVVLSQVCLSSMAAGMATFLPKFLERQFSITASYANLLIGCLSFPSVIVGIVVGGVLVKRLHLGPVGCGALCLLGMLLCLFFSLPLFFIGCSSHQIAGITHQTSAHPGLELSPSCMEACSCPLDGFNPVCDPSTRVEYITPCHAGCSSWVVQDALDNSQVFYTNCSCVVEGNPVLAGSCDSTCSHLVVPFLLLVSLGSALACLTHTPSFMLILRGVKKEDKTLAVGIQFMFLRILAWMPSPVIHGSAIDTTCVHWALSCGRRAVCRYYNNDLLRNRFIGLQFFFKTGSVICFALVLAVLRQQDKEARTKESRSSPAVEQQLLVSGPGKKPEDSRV
# [6] = target: T2, Solute carrier organic anion transporter family member 2B1; assay: Ratio of Vmax to Km for human OATP2B1 low affinity site expressed in Xenopus laevis oocytes assessed as transporter-mediated drug uptake per 15 mins per oocyte after 15 mins by Eadie-Hofstee plot method; type: ADME, cell-based; conditions: 0.25 h
# [7] = Ratio of Vmax to Km for human OATP2B1 H579Q/H618Q double mutant high affinity site expressed in Xenopus laevis oocytes assessed as transporter-mediated drug uptake per 15 mins per oocyte after 15 mins by Eadie-Hofstee plot method; type: ADME, cell-based; conditions: 0.25 h
# [8] = Substrate activity at human OATP2B1 H579Q/H618Q double mutant high affinity site expressed in Xenopus laevis oocytes assessed as Vmax for transporter-mediated drug accumulation per 15 mins per oocyte by Eadie-Hofstee plot method; type: ADME, cell-based; conditions: 0.25 h
# [9] = target: T2, Solute carrier organic anion transporter family member 2B1; assay: Drug uptake assessed as human OATP2B1 expressed in Xenopus laevis oocyte mediated drug accumulation per oocyte at 0.005 uM after 15 mins by LC-MS/MS analysis; type: ADME; conditions: 0.25 h
# [10] = target: T2, Solute carrier organic anion transporter family member 2B1; assay: Drug uptake assessed as OATP2B1 high affinity site (unknown origin)-mediated drug uptake in presence of 1 mM sulfasalazine relative to control; type: ADME
# [11] = target: T2, Solute carrier organic anion transporter family member 2B1; assay: Drug uptake assessed as OATP2B1 low affinity site (unknown origin)-mediated drug uptake in presence of 1 mM sulfasalazine relative to control; type: ADME
# [12] = Ratio of Vmax to Km for human OATP2B1 H618Q/H579Q double mutant low affinity site expressed in Xenopus laevis oocytes assessed as transporter-mediated drug uptake per 15 mins per oocyte after 15 mins by Eadie-Hofstee plot method; type: ADME, cell-based; conditions: 0.25 h
# [13] = target: T1, Solute carrier organic anion transporter family member 2B1; assay: Ratio of Vmax to Km for human OATP2B1 H618Q mutant high affinity site expressed in Xenopus laevis oocytes assessed as transporter-mediated drug uptake per 15 mins per oocyte after 15 mins by Eadie-Hofstee plot method; type: ADME, cell-based; conditions: 0.25 h
# [14] = target: Solute carrier organic anion transporter family member 2B1 (Homo sapiens, UniProt O94956, R607A); assay: Drug uptake assessed as human OATP2B1 R607A mutant expressed in Xenopus laevis oocyte mediated drug accumulation at 0.005 to 50 uM after 15 mins by LC-MS/MS analysis relative to wild type protein; type: ADME; conditions: 0.25 h
# [15] = target: T1, Solute carrier organic anion transporter family member 2B1; assay: Substrate activity at human OATP2B1 H618Q mutant high affinity site expressed in Xenopus laevis oocytes assessed as Vmax for transporter-mediated drug accumulation per 15 mins per oocyte by Eadie-Hofstee plot method; type: ADME, cell-based; conditions: 0.25 h
# [16] = test system: OATP2B1 H618Q/H579Q double mutant, low affinity site; assay: Substrate activity at human OATP2B1 H618Q/H579Q double mutant low affinity site expressed in Xenopus laevis oocytes assessed as Km for transporter-mediated drug accumulation after 15 mins by Eadie-Hofstee plot method; type: ADME, cell-based
# [17] = target: T2, Solute carrier organic anion transporter family member 2B1; assay: Drug uptake assessed as human OATP2B1 expressed in Xenopus laevis oocyte mediated drug accumulation per oocyte at 50 uM after 15 mins by LC-MS/MS analysis; type: ADME; conditions: 0.25 h
# [18] = target: T1, Solute carrier organic anion transporter family member 2B1; assay: Substrate activity at human OATP2B1 H618Q mutant low affinity site expressed in Xenopus laevis oocytes assessed as Vmax for transporter-mediated drug accumulation per 15 mins per oocyte by Eadie-Hofstee plot method; type: ADME, cell-based; conditions: 0.25 h
# [19] = target: T1, Solute carrier organic anion transporter family member 2B1; assay: Drug uptake assessed as human OATP2B1 H618Q mutant expressed in Xenopus laevis oocyte mediated drug accumulation at 0.005 uM after 15 mins by LC-MS/MS analysis relative to wild type protein; type: ADME; conditions: 0.25 h
# [20] = target: T2, Solute carrier organic anion transporter family member 2B1; assay: Substrate activity at human OATP2B1 low affinity site expressed in Xenopus laevis oocytes assessed as Vmax for transporter-mediated drug accumulation per 15 mins per oocyte by Eadie-Hofstee plot method; type: ADME, cell-based; conditions: 0.25 h
# [21] = target: T3, Solute carrier organic anion transporter family member 2B1 (Homo sapiens, UniProt O94956, H579Q); assay: Drug uptake assessed as human OATP2B1 H579Q mutant expressed in Xenopus laevis oocyte mediated drug accumulation at 0.005 to 50 uM after 15 mins by LC-MS/MS analysis relative to wild type protein; type: ADME; conditions: 0.25 h
# [22] = target: T2, Solute carrier organic anion transporter family member 2B1; assay: Drug uptake assessed as OATP2B1 high affinity site (unknown origin)-mediated drug uptake in presence of 1 mM pravastatin relative to control; type: ADME
# [23] = target: T3, Solute carrier organic anion transporter family member 2B1; assay: Drug uptake assessed as human OATP2B1 H579Q mutant expressed in Xenopus laevis oocyte mediated drug accumulation at 50 uM after 15 mins by LC-MS/MS analysis relative to wild type protein; type: ADME; conditions: 0.25 h
# [24] = target: T2, Solute carrier organic anion transporter family member 2B1; assay: Substrate activity at human OATP2B1 high affinity site expressed in Xenopus laevis oocytes assessed as Vmax for transporter-mediated drug accumulation per 15 mins per oocyte by Eadie-Hofstee plot method; type: ADME, cell-based; conditions: 0.25 h
# [25] = target: T1, Solute carrier organic anion transporter family member 2B1; assay: Ratio of Vmax to Km for human OATP2B1 H618Q mutant low affinity site expressed in Xenopus laevis oocytes assessed as transporter-mediated drug uptake per 15 mins per oocyte after 15 mins by Eadie-Hofstee plot method; type: ADME, cell-based; conditions: 0.25 h
# [26] = target: T2, Solute carrier organic anion transporter family member 2B1; assay: Ratio of Vmax to Km for human OATP2B1 high affinity site expressed in Xenopus laevis oocytes assessed as transporter-mediated drug uptake per 15 mins per oocyte after 15 mins by Eadie-Hofstee plot method; type: ADME, cell-based; conditions: 0.25 h
# T1 sequence (O94956 whole entry T392I/H618Q): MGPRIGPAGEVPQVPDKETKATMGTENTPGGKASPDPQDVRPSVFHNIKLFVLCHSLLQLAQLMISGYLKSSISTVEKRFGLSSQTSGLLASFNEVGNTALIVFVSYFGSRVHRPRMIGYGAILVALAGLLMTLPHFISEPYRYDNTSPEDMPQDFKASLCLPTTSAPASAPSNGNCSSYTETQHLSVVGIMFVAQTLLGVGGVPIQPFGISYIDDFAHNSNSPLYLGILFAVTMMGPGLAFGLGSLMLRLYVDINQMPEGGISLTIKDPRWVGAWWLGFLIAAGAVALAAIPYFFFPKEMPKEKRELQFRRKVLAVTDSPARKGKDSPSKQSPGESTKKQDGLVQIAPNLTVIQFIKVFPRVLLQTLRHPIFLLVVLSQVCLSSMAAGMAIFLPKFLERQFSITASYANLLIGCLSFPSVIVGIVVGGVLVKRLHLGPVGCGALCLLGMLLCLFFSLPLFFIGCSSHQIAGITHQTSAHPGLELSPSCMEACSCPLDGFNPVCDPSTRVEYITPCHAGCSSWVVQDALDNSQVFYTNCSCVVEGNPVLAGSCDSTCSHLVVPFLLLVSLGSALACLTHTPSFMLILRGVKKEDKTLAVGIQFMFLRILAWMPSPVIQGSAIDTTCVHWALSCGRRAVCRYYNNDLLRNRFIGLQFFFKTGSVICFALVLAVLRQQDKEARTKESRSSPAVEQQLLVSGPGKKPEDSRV
# T3 sequence (O94956 whole entry T392I/H579Q): as the sequence (O94956 whole entry T392I/H618Q) above, with H579Q, Q618H counted along it
# Chain of Solute carrier organic anion transporter family member 2B1 (Homo sapiens, UniProt O94956, R607A) (O94956 whole entry T392I/R607A): as the sequence (O94956 whole entry T392I/H618Q) above, with R607A, Q618H counted along it
# Chain of Solute carrier organic anion transporter family member 2B1 (Homo sapiens, UniProt O94956, H219Q) (O94956 whole entry H219Q/T392I): as the sequence (O94956 whole entry T392I/H618Q) above, with H219Q, Q618H counted along it
smiles,measurement,setting,value
C[C@]12CC[C@@H]3c4ccc(OS(=O)(=O)O)cc4CC[C@H]3[C@@H]1CCC2=O [ESTRONE SULFURIC ACID],fold change (FC),[1],< 2
same,fold change (FC),[2],< 2
same,Vmax,[3],30.9 pmol
same,Km at 0.25 h,[4],0.808 µM
same,Drug uptake,[5],79%
same,Vmax/Km,[6],0.385 µL
same,Vmax/Km,[7],0.471 µL
same,Vmax,[8],0.38 pmol
same,Drug uptake,[9],2.39 µL
same,Drug uptake,[10],< 1%
same,Drug uptake,[11],< 1%
same,Vmax/Km,[12],0.0987 µL
same,Vmax/Km,[13],0.269 µL
same,fold change (FC),[14],< 2
same,Vmax,[15],0.0402 pmol
same,Km at 0.25 h,[16],312 µM
same,Drug uptake,[17],0.198 µL
same,Vmax,[18],60 pmol
same,Drug uptake,[19],17.8%
same,Vmax,[20],19.8 pmol
same,fold change (FC),[21],< 2
same,Drug uptake,[22],21%
same,Drug uptake,[23],14%
same,Vmax,[24],0.867 pmol
same,Vmax/Km,[25],0.659 µL
same,Vmax/Km,[26],1.87 µL
